From patent publication US11780826B2 (Amgen Inc., priority 2017, dated 2023)

What follows are compounds tested on Bovine cardiac myofibrils (assay: In vitro model of dose-dependent myofibril ATPase modulation (AC1.4, pyruvate kinase/lactate dehydrogenase-coupled ATPase assay at pCa25)). Details: concentration at which ATPase activity was 1.4-fold higher than the bottom of the dose curve, mean of a minimum of two independent tests.
Assay type: biochemical
How it was run: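 Bovine cardiac myofibrils, detergent-treated; 0.25-1.0 mg/ml. Buffer: K-PIPES 12 mM, MgCl2 2 mM, DTT 1 mM, BSA 0.1 mg/ml, pH 6.80, 22° C; Ca2+ set by EGTA/CaCl2. ATP 1 mM, NADH/PEP-coupled, A340. 4-parameter fit; n≥2.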

Structure (SMILES) | AC1.4
O=C(N[C@@H](c1cc(F)c(C(F)(F)F)cc1F)C1CC1)[C@H]1C[C@H]2C[C@H]2N1C(=O)c1cccc(C(F)(F)F)c1 [Example 115, (1R,3R,5R)-N-((R)-cyclopropyl(2,5-difluoro-4-(trifluoromethyl)phenyl)methyl)-2-(3-(trifluoromethyl)benzoyl)-2-azabicyclo[3.1.0]hexane-3-carboxamide] | 0.1774 µM
N#CC1CN(S(=O)(=O)N2CCO[C@H](C(=O)N3CCC[C@@H]3C(=O)NCc3ccc(C(F)(F)F)cc3F)C2)C1 [Example 116] | 0.179 µM
N#CC1CN(S(=O)(=O)N2CCC[C@H](C(=O)N3CCC[C@@H]3C(=O)N[C@@H](c3ccc(S(F)(F)(F)(F)F)cc3)C3CC3)C2)C1 [Example 117, 1-(((3S)-1-((3-cyano-1-azetidinyl)sulfonyl)-3-piperidinyl)carbonyl)-N-((R)-cyclopropyl(4-(pentafluoro-lambda~6~-sulfanyl)phenyl)methyl)-D-prolinamide] | 0.179 µM
CS(=O)(=O)c1ccc(NCCO)c(C(=O)N2[C@@H](C(=O)N[C@@H](c3ccc(C(F)(F)F)cc3F)C3CC3)C[C@H]3C[C@H]32)c1 [Example 118, (1R,3R,5R)-N-((R)-cyclopropyl(2-fluoro-4-(trifluoromethyl)phenyl)methyl)-2-(2-((2-hydroxyethyl)amino)-5-(methylsulfonyl)benzoyl)-2-azabicyclo[3.1.0]hexane-3-carboxamide] | 0.1795 µM
Cc1cc(Cl)ccc1CNC(=O)[C@H]1CCCN1C(=O)[C@H]1CCCN(S(=O)(=O)N2CC(C#N)C2)C1 [Example 119, N-(4-chloro-2-methylbenzyl)-1-(((3S)-1-((3-cyano-1-azetidinyl)sulfonyl)-3-piperidinyl)carbonyl)-D-prolinamide] | 0.1819 µM
C[C@@H](NC(=O)[C@H]1CCCN1C(=O)c1cccc(S(=O)(=O)N2CC(C#N)C2)c1)c1ccc(C(F)F)cc1 [Example 120, 1-((3-((3-cyano-1-azetidinyl)sulfonyl)phenyl)carbonyl)-N-((1R)-1-(4-(difluoromethyl)phenyl)ethyl)-D-prolinamide] | 0.1826 µM
C[C@H](C(=O)N[C@H](C)c1ccc(C(F)(F)F)cc1)N(C)C(=O)c1cccc(S(=O)(=O)N2CC(C#N)C2)c1 [Example 121, 3-((3-cyano-1-azetidinyl)sulfonyl)-N-methyl-N-((1R)-1-methyl-2-oxo-2-(((1R)-1-(4-(trifluoromethyl)phenyl)ethyl)amino)ethyl)benzamide] | 0.1828 µM
N#CC1CN(S(=O)(=O)c2cccc(C(=O)N3C[C@H](F)C[C@@H]3C(=O)NCc3ccc(C(F)(F)F)cc3)c2)C1 [Example 122, (4R)-1-((3-((3-cyano-1-azetidinyl)sulfonyl)phenyl)carbonyl)-4-fluoro-N-(4-(trifluoromethyl)benzyl)-D-prolinamide] | 0.1858 µM
N#CC1CN(S(=O)(=O)n2cc(C(=O)N3CCC[C@@H]3C(=O)NCc3ccc(C(F)(F)F)cc3)cn2)C1 [Example 123, 1-((1-((3-cyano-1-azetidinyl)sulfonyl)-1H-pyrazol-4-yl)carbonyl)-N-(4-(trifluoromethyl)benzyl)-D-prolinamide] | 0.189 µM
CC[C@@H](NC(=O)[C@H]1CCCN1C(=O)c1cccc(S(=O)(=O)N2CC(C#N)C2)c1)c1cc(F)cc(F)c1 [Example 124, 1-(3-((3-cyano-1-azetidinyl)sulfonyl)benzoyl)-N-((1R)-1-(3,5-difluorophenyl)propyl)-D-prolinamide] | 0.1998 µM

Continued, values first:

AC1.4 | Structure (SMILES)
0.2026 µM | CS(=O)(=O)c1ccc(C(=O)N2CCCC[C@@H]2C(=O)N[C@@H](c2cc(F)c(Cl)cc2F)C2CC2)cn1 [Example 125, (2R)-N-((R)-(4-chloro-2,5-difluorophenyl)(cyclopropyl)methyl)-1-((6-(methylsulfonyl)-3-pyridinyl)carbonyl)-2-piperidinecarboxamide]
0.2062 µM | N#CC1CN(S(=O)(=O)c2cccc(C(=O)N3C[C@H](O)C[C@@H]3C(=O)NCc3ccc(C(F)(F)F)cc3)c2)C1 [Example 126, (4R)-1-((3-((3-cyano-1-azetidinyl)sulfonyl)phenyl)carbonyl)-4-hydroxy-N-(4-(trifluoromethyl)benzyl)-D-prolinamide]
0.2088 µM | O=C(N[C@@H](c1cc(F)c(Cl)cc1F)C1CC1)[C@H]1C[C@H]2C[C@H]2N1C(=O)c1cccc(C(F)(F)F)c1 [Example 127, (1R,3R,5R)-N-((R)-(4-chloro-2,5-difluorophenyl)(cyclopropyl)methyl)-2-(3-(trifluoromethyl)benzoyl)-2-azabicyclo[3.1.0]hexane-3-carboxamide]
0.2103 µM | CCS(=O)(=O)c1cccc(C(=O)N2[C@@H](C(=O)N[C@@H](c3ccc(C(F)(F)F)cc3F)C3COC3)C[C@H]3C[C@H]32)c1 [Example 128, (1R,3R,5R)-2-(3-(ethylsulfonyl)benzoyl)-N-((R)-(2-fluoro-4-(trifluoromethyl)phenyl)(3-oxetanyl)methyl)-2-azabicyclo[3.1.0]hexane-3-carboxamide]
0.2119 µM | CS(=O)(=O)c1cccc(C(=O)N2CSC[C@@H]2C(=O)N[C@@H](c2ccc(C(F)(F)F)cc2F)C2CC2)c1 [Example 129, (4S)-N-((R)-cyclopropyl(2-fluoro-4-(trifluoromethyl)phenyl)methyl)-3-(3-(methylsulfonyl)benzoyl)-1,3-thiazolidine-4-carboxamide]
0.214 µM | Cc1ccc(CNC(=O)[C@H]2CCCN2C(=O)[C@H]2CCCN(S(=O)(=O)N3CC(C#N)C3)C2)cc1Cl [Example 130, N-(3-chloro-4-methylbenzyl)-1-(((3S)-1-((3-cyano-1-azetidinyl)sulfonyl)-3-piperidinyl)carbonyl)-D-prolinamide]
0.2158 µM | N#CC1CN(S(=O)(=O)c2cccc(C(=O)N3CCC[C@@H]3C(=O)NCc3ccc(C(F)(F)F)nc3)c2)C1 [Example 131, 1-((3-((3-cyano-1-azetidinyl)sulfonyl)phenyl)carbonyl)-N-((6-(trifluoromethyl)-3-pyridinyl)methyl)-D-prolinamide]
0.2176 µM | N#CC1CN(S(=O)(=O)N2CCC[C@H](C(=O)N3CCC[C@@H]3C(=O)NC(c3ccc(Cl)cc3)C3CCCO3)C2)C1 (stereo partly drawn) [Example 132, N-(-(4-chlorophenyl)(-tetrahydro-2-furanyl)methyl)-1-(((3S)-1-((3-cyano-1-azetidinyl)sulfonyl)-3-piperidinyl)carbonyl)-D-prolinamide]
0.2186 µM | CCS(=O)(=O)c1ccnc(C(=O)N2[C@@H](C(=O)N[C@@H](c3cc(F)c(Cl)cc3F)C3CC3)C[C@H]3C[C@H]32)c1 [Example 133, (1R,3R,5R)-N-((R)-(4-chloro-2,5-difluorophenyl)(cyclopropyl)methyl)-2-((4-(ethylsulfonyl)-2-pyridinyl)carbonyl)-2-azabicyclo[3.1.0]hexane-3-carboxamide]
0.2198 µM | N#CC1CN(S(=O)(=O)N2CCC[C@H](C(=O)N3CCC[C@@H]3C(=O)NC(CO)c3ccc(C(F)(F)F)cc3)C2)C1 (stereo partly drawn) [Example 134, 1-(((3S)-1-((3-cyano-1-azetidinyl)sulfonyl)-piperidinyl)carbonyl)-N-(-2-hydroxy-1-(4-(trifluoromethyl)phenyl)ethyl)-D-prolinamide]
